# According to patent US11447511B2, “Dioxolane analogues of uridine for the treatment of cancer” (MEDIVIR AB, priority 2014, dated 2022):
# Columns and labels:
# [1] = Cell cytotoxicity assay, HEPG2; type: cell-based; settings: human; HepG2 cells, 5 days at 37° C., XTT dye
# Method: (§1) Cells were seeded 24 hours prior to compound addition. Each test compound (serially diluted from 100 μM) was added to Huh7 (1.5×10^4 cells/well) or HepG2 (1.5×10^4 cells/well), and allowed to incubate for 5 days at 37° C. A medium only control was used to determine the minimum absorbance value and an untreated cell value. At the end of the growth period, XTT dye from Polysciences Europe GmbH was added to each well. The absorbance at 450 nm with a reference wavelength of 600 nm was read with a Sunrise (Tecan) using the medium only control wells as blanks. The 50% inhibition value (CC50) was determined by comparing the degree of inhibition (compared to cell control) plotted against compound concentration. Results from the dilution series were fitted to a sigmoidal dose-response curve.
# (§2) Compounds of the invention were evaluated in these assays to assess the stability in human intestinal S9 fraction (HIS9) and human liver S9 fraction (HLS9), and for Cell Cytotoxicity in HUH7, HEP3B and HEPG2 cells.
# [2] = Stability in human intestinal S9 fraction (HIS9); type: in vitro ADME; settings: human intestinal S9 0.4 mg protein/mL, 5 μM test compound, 37° C.
# Method: (§3) Stability in Human Intestinal S9 Fraction (HIS9) and in Human Liver S9 Fraction (HLS9),
# (§4) Stock solutions of each test compound (10 mM) were prepared in DMSO and stored at −20° C. Prior to the start of the experiment, the test compounds were diluted to 500 μM in 50% acetonitrile in water. The reaction mixture was prepared in a total volume of 250 μL containing 5 mM MgC2, 1 mM NADPH and 5 μM test compound in 50 mM potassium phosphate buffer (pH 7.4). The reaction was initiated by addition of human liver or intestinal S9 fraction with a final concentration of 0.4 mg protein/mL (Xeno Tech). The reaction mixture was incubated on an orbital shaker at 37° C. At the desired time points (0, 10, 30 and 60 minutes) aliquots of 50 μL were taken and the reaction was stopped by mixing with 150 μL acetonitrile containing internal standard. Standard solutions of each test compound were prepared from the 500 μM solution by diluting the solution to a final concentration of 5 μM in boiled human S9 (0.4 mg protein/mL), 5 mM MgCl2 and 50 mM potassium phosphate buffer (pH 7.4). The standards and samples were kept on ice for 30 min then centrifuged at 3 000 g for 20 minutes at 10° C., there after 10 μL of supernatant was mixed with 200 μL 50% acetonitrile in water. 0.5 μM of each test compound in 50% acetonitrile in water was injected into the LC/MS-MS to determine the daughter ion, declustring potential (DP), collision energy (CE) and collision cell exit potential (CXP) in order to develop a LC/MS-MS method. The compounds were separated using a C18 column with a QTRAP5500 system. The mobile phase consisted of solvent A (98% water, 2% acetonitrile, 0.1% acetic acid or 10 mM ammonium acetate) and solvent B (80% acetonitrile, 20% water, 0.1% acetic acid or 10 mM ammonium acetate). Elution of the compounds was performed by using a gradient of solvent B from 0% to 100%. 5 μL of standard points and samples were injected for analysis with QTRAP5500.
# (§5) The amount of parent compound was determined on the basis of the peak area for each time point compared to standard which was set to 5 μM. Intrinsic clearance (CLint) and half-life (t1/2) were determined from the disappearance curves of the test compound using Excel software.
# [3] = Stability in human liver S9 fraction (HLS9); type: in vitro ADME; settings: human liver S9 0.4 mg protein/mL, 5 μM test compound, 37° C.; for microsomal CLint at 5 μM: liver S9 fraction, pH 7.4
# Method: as §3, §4, §5
# [4] = Cell cytotoxicity assay, HUH7; type: cell-based; settings: human; Huh7 cells, 5 days at 37° C., XTT dye
# Method: as §1, §2
# HepG2 = assay: Cell cytotoxicity assay, HEPG2; type: cell-based; settings: HepG2 cells, 5 days at 37° C., XTT dye
# Method: as §1, §2
# Huh7 = assay: Cell cytotoxicity assay, HUH7; type: cell-based; settings: Huh7 cells, 5 days at 37° C., XTT dye
# Method: as §1, §2
# HEP3B = assay: Cell cytotoxicity assay, HEP3B; type: cell-based; settings: HEP3B cells
# Method: as §1, §2
Structure (SMILES),CLint Intestinal S9 [2] [µL/min/mg],CLint Liver S9 [3] [µL/min/mg],CC50 at 5 days [1] [µM],"microsomal CLint at 5 μM ([2]; intestinal S9 fraction, pH 7.4) [µL/min/mg]",microsomal CLint at 5 μM [3] [µL/min/mg],CC50 at 5 days [4] [µM],CC50 (HepG2) [µM],CC50 (Huh7) [µM],CC50 (HEP3B) [µM]
"COC(=O)[C@H](Cc1ccccc1)NP(=O)(OC[C@H]1OC[C@@H](n2ccc(N)nc2=O)O1)Oc1ccccc1 (single isomer, unassigned) [28 dia-2]",–,–,2.72,40,20,15.6,–,–,–
"CC(C)OC(=O)[C@H](C)NP(=O)(OC[C@H]1OC[C@@H](n2ccc(N)nc2=O)O1)Oc1ccccc1 (single isomer, unassigned) [Example 2]",6,–,0.248,–,13,1.75,–,–,–
"CC(C)OC(=O)[C@H](C)NP(=O)(OC[C@H]1OC[C@@H](n2ccc(N)nc2=O)O1)Oc1ccccc1 (single isomer, unassigned) [Example 3]",6,–,0.371,–,8,3.28,–,–,–
"CC[C@@H](C)OC(=O)[C@H](C)NP(=O)(OC[C@H]1OC[C@@H](n2ccc(N)nc2=O)O1)Oc1ccc([Si](C)(C)C)cc1 (single isomer, unassigned; dia-1) [11 dia-1]",6,51,–,–,–,–,0.054,0.026,0.018
"CCC[C@H](C)OC(=O)[C@H](C)NP(=O)(OC[C@H]1OC[C@@H](n2ccc(N)nc2=O)O1)Oc1ccc(C2CC2)cc1 (single isomer, unassigned; dia-1) [16 dia-1]",8,50,–,–,–,–,0.151,1.2,0.106
"CCCC(CCC)COC(=O)[C@H](C)NP(=O)(OC[C@H]1OC[C@@H](n2ccc(N)nc2=O)O1)Oc1ccc(Br)cc1 (single isomer, unassigned; dia-1) [23 dia-1]",32,186,–,–,–,–,0.0086,–,0.01
"CCCC(CCC)COC(=O)[C@H](C)NP(=O)(OC[C@H]1OC[C@@H](n2ccc(N)nc2=O)O1)Oc1ccccc1 (single isomer, unassigned; dia-2) [8 dia-2]",–,–,–,–,–,–,0.017,0.074,0.035
"CC[C@@H](C)OC(=O)[C@H](C)NP(=O)(OC[C@H]1OC[C@@H](n2ccc(N)nc2=O)O1)Oc1ccc([Si](C)(C)C)cc1 (single isomer, unassigned; dia-2) [11 dia-2]",28,81,–,–,–,–,0.054,–,0.031
"Nc1ccn([C@@H]2CO[C@H](COP(=O)(N[C@@H](Cc3ccccc3)C(=O)OCc3ccccc3)Oc3cccc(C4CC4)c3)O2)c(=O)n1 (single isomer, unassigned; dia-2) [12 dia-2]",300,97,–,–,–,–,1.09,5.02,–
"CCCC(CCC)COC(=O)[C@H](C)NP(=O)(OC[C@H]1OC[C@@H](n2ccc(N)nc2=O)O1)Oc1cccc2ccccc12 (single isomer, unassigned; dia-2) [14 dia-2]",59,159,–,–,–,–,0.012,0.2,–
"CCC[C@H](C)OC(=O)[C@H](C)NP(=O)(OC[C@H]1OC[C@@H](n2ccc(N)nc2=O)O1)Oc1ccc(C2CC2)cc1 (single isomer, unassigned; dia-2) [16 dia-2]",8,59,–,–,–,–,0.13,0.152,0.053
"C[C@H](NP(=O)(OC[C@H]1OC[C@@H](n2ccc(N)nc2=O)O1)Oc1ccccc1)C(=O)OCc1ccccc1 (single isomer, unassigned; dia-2) [19 dia-2]",17,24,–,–,–,–,0.014,0.071,0.058
"C[C@H](NP(=O)(OC[C@H]1OC[C@@H](n2ccc(N)nc2=O)O1)Oc1cccc2ccccc12)C(=O)OC1CCCC1 (single isomer, unassigned; dia-2) [22 dia-2]",34,43,–,–,–,–,0.011,0.04,–
"CCCCCCCCCCCCCCCC(=O)Nc1ccn([C@@H]2CO[C@H](COP(=O)(N[C@@H](C)C(=O)OC(C)C)Oc3ccccc3)O2)c(=O)n1 (single isomer, unassigned; dia-2) [35 dia-2]",51,34,–,–,–,–,0.007,0.011,–
"CC(C)OC(=O)[C@H](C)NP(=O)(OC[C@H]1OC[C@@H](n2ccc(=O)[nH]c2=O)O1)Oc1ccccc1 (stereo partly drawn) [Example 1, (2S)-isopropyl 2-(((((2S,4S)-4-(2,4-dioxo-3,4-dihydropyrimidin-1(2H)-yl)-1,3-dioxolan-2-yl)methoxy)(phenoxy)phosphoryl)amino)propanoate]",6,–,> 100,–,12,> 100,–,–,–

# Further lines, with some results ahead:
CLint Intestinal S9 [2] [µL/min/mg],CLint Liver S9 [3] [µL/min/mg],Structure (SMILES),CC50 at 5 days [1] [µM],"microsomal CLint at 5 μM ([2]; intestinal S9 fraction, pH 7.4) [µL/min/mg]",microsomal CLint at 5 μM [3] [µL/min/mg],CC50 at 5 days [4] [µM],CC50 (HepG2) [µM],CC50 (Huh7) [µM],CC50 (HEP3B) [µM]
6,21,"CC[C@@H](C)OC(=O)[C@H](C)NP(=O)(OC[C@H]1OC[C@@H](n2ccc(N)nc2=O)O1)Oc1ccccc1 (single isomer, unassigned; dia-1) [18 dia-1]",–,–,–,–,0.248,0.461,0.228
6,7,"COC(=O)[C@H](C)NP(=O)(OC[C@H]1OC[C@@H](n2ccc(N)nc2=O)O1)Oc1ccccc1 (single isomer, unassigned; dia-1) [26 dia-1]",–,–,–,–,1.21,–,4.34
36,95,"CCC(CC)COC(=O)[C@H](C)NP(=O)(OC[C@H]1OC[C@@H](n2ccc(N)nc2=O)O1)Oc1ccccc1 (single isomer, unassigned; dia-2) [15 dia-2]",–,–,–,–,0.019,0.026,–
7,30,"CC[C@@H](C)OC(=O)[C@H](C)NP(=O)(OC[C@H]1OC[C@@H](n2ccc(N)nc2=O)O1)Oc1ccccc1 (single isomer, unassigned; dia-2) [18 dia-2]",–,–,–,–,0.065,0.076,0.113
6,25,"CCC[C@H](C)OC(=O)[C@H](C)NP(=O)(OC[C@H]1OC[C@@H](n2ccc(N)nc2=O)O1)Oc1ccccc1 (single isomer, unassigned; dia-2) [20 dia-2]",–,–,–,–,0.06,0.073,0.078
10,22,"CCC(CC)OC(=O)[C@H](C)NP(=O)(OC[C@H]1OC[C@@H](n2ccc(N)nc2=O)O1)Oc1ccccc1 (single isomer, unassigned; dia-2) [21 dia-2]",–,–,–,–,0.048,0.07,–
6,10,"COC(=O)[C@H](C)NP(=O)(OC[C@H]1OC[C@@H](n2ccc(N)nc2=O)O1)Oc1ccccc1 (single isomer, unassigned; dia-2) [26 dia-2]",–,–,–,–,1.06,4.73,4.02
